Experimental data taken from PMC10111423, “Antimalarial Imidazopyridines Incorporating an Intramolecular Hydrogen Bonding Motif: Medicinal Chemistry and Mechanistic Studies” (ACS Infectious Diseases, 2023).

Columns and labels:
[1] = test system: multidrug-resistant (K1) strain of P. falciparum; test: In vitro asexual blood-stage antiplasmodium pLDH assay, K1 strain; format: cell-based; settings: Plasmodium falciparum, 72 h, n ≥ 3, read-out: In vitro antiplasmodium activity IC50 PfK1 strain
Protocol: Compounds were screened against multi-drug-resistant (K1) and sensitive (NF54) strains of P. falciparum in vitro using a parasite lactate dehydrogenase assay (pLDH) (the method is described fully in the Supporting Information). […]
In vitro Asexual Blood Stage Antiplasmodium Assay
Parasites were cultured as per the method of Trager and Jensen,1 with modifications. IC50 values were determined using parasite lactate dehydrogenase as a marker for survival (Makler […]
et al, 1993). The test samples were prepared to a 10 mmol/L stock solution in 100% DMSO.
Samples were tested as a suspension if not completely dissolved. Further dilutions to the desired starting concentration were freshly prepared in growth media on each occasion of the experiment. The standard antimalarial drugs chloroquine (CQ) and artesunate (Arts) were used as the reference drug in all experiments. A full dose-response was performed for all compounds in a 96-well plate to determine the concentration inhibiting 50% of parasite growth (IC50– value). Test samples were tested at a starting concentration of 6mmol/L, which was then serially diluted 2-fold in growth medium to generate the tested concentration range. The same dilution technique was used for all samples. CQ and Arts were tested from a starting concentration of 1µg/mL. The highest concentration of solvent to which the parasites were exposed was <0.1% and has no measurable effect on the parasite viability (data not shown).
The assay plate was incubated at 37 °C for 72h in a sealed gas chamber under 3% O2 and 4% CO2 with the balance being N2. After 72h, the wells in the assay plate were gently resuspended, and 15µL from each well was transferred to a duplicate plate containing 100µL of Malstat reagent and 25µL of nitroblue tetrazolium solution in each well. Plates were left to develop for 20 minutes in the dark and then absorbance of each well was quantified using a spectrophotometer at 620nm wavelength.
The remaining population of parasites at each concentration of the test compound was determined by comparing the absorbance of each well to the absorbance of a well containing […]
the drug-free control. […]
The initial 100 µg/mL solution is serially diluted 10-

[2] = In vitro microsomal stability, human liver microsomes; format: in vitro ADME; settings: 1 μM, 0.4 mg/mL protein
Protocol: Xenotech, Kansas, USA), suspended in 0.1 M phosphate buffer (pH 7.4). (Details of this assay are described in the Supporting Information.) page 20: fold to attain six assay concentrations of 100-0.001 μg/mL. […] was used as the reference compound in this assay. The highest concentration of DMSO, which was used as the negative control, had no measurable effect on cell viability. After 44 hours of exposure of the cells to the test compounds, a solution of MTT was added. This was followed by an additional 4 hours of incubation at 37 °C. The assay plates were centrifuged, medium removed, and DMSO was added to the crystals. The amount of formazan was ascertained by measuring the absorbance at 540 nm. GraphPad Prism software was then used to generate IC50 values through a non-linear dose-response curve analysis. β-Hematin Inhibition Assay 20 mM stock solutions of controls and test compounds were made in DMSO. A solution […] was added to every well in columns 1-11 of a 96-well plate. 140 μL of water and 40 μL of 305.5 μM NP-40 were added to column 12 to mediate the formation of beta-hematin. 20 μL of test compounds (20 mM) were added to column 12 and 100 μL of this solution serially diluted to column 2, leaving column 1 blank (0 μM of test compound). 178.8 μL aliquot of hematin stock was suspended in 20 ml of a 1 M acetate buffer at pH 4.9. 100 μL of this hematin suspension was then added into each well, and the plates were incubated for ±5 hrs at 37°C. Subsequently, 32 μL of pyridine solution (20% water, 20% acetone, 10% 2M HEPES buffer at pH 7.4 and 50% pyridine) and 60 μL of acetone were added to all wells. The absorbances of plate wells were recorded at 405 nm on a SpectraMax plate reader. Sigmoidal dose-response curves with variable slopes were fitted to the absorbance data using GraphPad Prism to obtain the IC50 values for each compound. In vitro Microsomal Stability Assay The in vitro microsomal stability assay was performed in duplicate in a 96-well micro titre […] individually in human (pool of 50, mixed gender), rat (pool of 711, male Sprague Dawley) and mouse (pool of 1634, male CD1) liver microsomes (final protein concentration of 0.4 mg/mL; Xenotech, Kansas, USA), suspended in 0.1M phosphate buffer (pH 7.4). Incubations were S20 page 21: started by addition of NADPH (1 mM) as cofactor and shaken for 30 minutes at 37 °C. The reactions were then quenched by adding 300 μL of ice-cold acetonitrile containing internal standard (carbamazepine, 0.0236 μg/mL) and centrifuged. The supernatant was transferred to a fresh 96-well plate and analysed by LC-MS/MS (Agilent Rapid Resolution HPLC, AB SCIEX 4500 MS). The relative loss of parent compound over time was monitored and plots (concentration vs. time) were prepared per compound to determine the first order rate constant for compound depletion. This was in turn used to calculate half-life, in vitro intrinsic clearance and in vivo hepatic extraction ratio.6 Metabolite Identification Studies […] microsomes (MLM, male mouse CD1, Lot No. 1510043, Xenotech), magnesium chloride (5 mM) and NADPH (1 mM) in sodium phosphate buffer (100 mM, pH 7.4) for 60 minutes while shaking. The samples were then prepared by ice-cold acetonitrile precipitation, centrifuged, and filtered for LC-MS/MS analysis. […] Fluorescence Live-cell Microscopy […] […]

Structure (SMILES) | IC50 [1] [nM] | Microsomal EH (hepatic extraction ratio), human [2]
CCN(CCNc1cc2[nH]c(C3CC3)nc2cn1)Cc1ccc(Cl)cc1O [Compound 5, 5-Chloro-2-(((2-((2-cyclopropyl-1H-imidazo[4,5-c]pyridin-6-yl)amino)ethyl)(ethyl)amino)methyl)phenol] | 480 | 0.54
CCN(CCNc1cc2[nH]c(C3(C)CC3)nc2cn1)Cc1ccc(Cl)cc1O [Compound 6, 5-Chloro-2-((ethyl(2-((2-(1-methylcyclopropyl)-1H-imidazo[4,5-c]pyridin-6-yl)amino)ethyl)amino)methyl)phenol] | 6000 | 0.71
CCN(CCNc1cc2[nH]c(C3CCCC3)nc2cn1)Cc1ccc(Cl)cc1O [Compound 1, 5-Chloro-2-(((2-((2-cyclopentyl-1H-imidazo[4,5-c]pyridin-6-yl)amino)ethyl)(ethyl)amino)methyl)phenol] | 1350 | 0.60

The next compounds have a lower IC50 [1] than those just listed; values first:

IC50 [1] [nM] | Microsomal EH (hepatic extraction ratio), human [2] | Structure (SMILES)
360 | 0.80 | CCN(CCNc1cc2[nH]c(-c3ccc(C(F)(F)F)nc3)nc2cn1)Cc1ccc(Cl)cc1O [Compound 19, 5-Chloro-2-((ethyl(2-((2-(6-(trifluoromethyl)pyridin-3-yl)-1H-imidazo[4,5-c]pyridin-6-yl)amino)ethyl)amino)methyl)phenol]
100 | 0.85 | CCN(CCNc1cc2[nH]c(-c3cccc(C(F)(F)F)c3)nc2cn1)Cc1ccc(Cl)cc1O [Compound 14, 5-Chloro-2-((ethyl(2-((2-(3-(trifluoromethyl)phenyl)-1H-imidazo[4,5-c]pyridin-6-yl)amino)ethyl)amino)methyl)phenol]
